Experiments:
Mus musculus [1] = test: Toxicity in Balb/c mouse xenografted with human MKN45 cells assessed as change in body weight at 50 mg/kg, po bid for 24 days; assay type: organism-based, MKN-45; settings: in vivo, 576 h
[2] = Antitumor activity against human MKN45 cells xenografted in Balb/c mouse assessed as tumor growth inhibition at 50 mg/kg, po bid for 24 days relative to control; assay type: functional, MKN-45; set-up: scale not given: the % may be the effect or the level left
HT-29 [3] = test: Antitumor activity against human HT-29 cells xenografted in Balb/c mouse assessed as tumor growth inhibition at 50 mg/kg, po bid for 27 days relative to control; assay type: functional; set-up: scale not given: the % may be the effect or the level left
Mus musculus [4] = test: Toxicity in Balb/c mouse xenografted with human HT-29 cells assessed as change in body weight at 50 mg/kg, po bid for 27 days; assay type: organism-based; settings: in vivo, 648 h
MDA-MB-231 = test: Cytotoxicity against human MDA-MB-231 cells after 72 hrs by MTT assay; assay type: functional, cell-based; settings: MDA-MB-231, 72 h
HT-29 [5] = test: Cytotoxicity against human HT-29 cells after 72 hrs by MTT assay; settings: HT-29, 72 h
A549 = test: Cytotoxicity against human A549 cells after 72 hrs by MTT assay; assay type: functional, cell-based; settings: A549, 72 h
[6] = Cytotoxicity against human MKN45 cells after 72 hrs by MTT assay; settings: MKN-45, 72 h
Mus musculus [7] = test: AUC (0 to infinity) in mouse at 20 mg/kg, iv or 35 mg/kg, po administered as single dose by LC/MS/MS analysis; assay type: ADME, organism-based; settings: in vivo
Mus musculus [8] = test: Cmax in mouse at 35 mg/kg, po administered as single dose measured at 0.25 to 24 hrs by LC/MS/MS analysis; assay type: ADME, organism-based; set-up: dose 35 mg/kg, route oral; settings: in vivo
Mus musculus [9] = test: Tmax in mouse at 35 mg/kg, po administered as single dose by LC/MS/MS analysis; assay type: ADME, organism-based; settings: in vivo
PBL = test: Cytotoxicity against human PBL cells after 72 hrs by MTT assay; assay type: cell-based
Mus musculus [10] = test: Half life in mouse at 20 mg/kg, iv or 35 mg/kg, po administered as single dose by LC/MS/MS analysis; assay type: ADME, organism-based; settings: in vivo
[11] = Mean residence time (0 to infinity) in mouse at 20 mg/kg, iv or 35 mg/kg, po administered as single dose by LC/MS/MS analysis; assay type: ADME, organism-based; settings: in vivo
[12] = Apparent volume of distribution during terminal phase in mouse at 35 mg/kg, po administered as single dose measured at 0.25 to 24 hrs by LC/MS/MS analysis; assay type: ADME, organism-based; settings: in vivo, read-out: Vz/F

Row | SMILES | IC50 (MDA-MB-231) | IC50 (HT-29 [5]) | IC50 (A549) | IC50 [6] | IC50 (PBL) | further results
1 | COc1cc2c(Oc3ccc(NC(=O)C4(C(=O)Nc5ccc(F)cc5)CC4)cc3F)ccnc2cc1OCCCN1CCOCC1 [FORETINIB] |  |  |  |  |  | Activity (Mus musculus [1]): Non-toxic; Activity [2]: 78.23%; Activity (HT-29 [3]): 73.68%; Activity (Mus musculus [4]): Non-toxic
2 | COc1cc2c(Oc3ccc(NC(=O)N/N=C/c4ccc(O)cc4)cc3F)ccnc2cc1OCCCN1CCCCC1 | 790 nM | 470 nM | 780 nM | 850 nM |  | 
3 | COc1cc2c(Oc3ccc(NC(=O)N/N=C/c4ccc(C(F)(F)F)cc4)cc3F)ccnc2cc1OCCCN1CCC(C)CC1 | 1300 nM | 740 nM | 650 nM | 1000 nM |  | 
4 | COc1cc2c(Oc3ccc(NC(=O)N/N=C/c4ccc(C(F)(F)F)cc4)cc3F)ccnc2cc1OCCCN1CCCCC1 | 1100 nM | 660 nM | 660 nM | 630 nM |  | 
5 | COc1cc2c(Oc3ccc(NC(=O)N/N=C/c4ccc(C(F)(F)F)cc4)cc3F)ccnc2cc1OCCCN1CCCC1 | 1800 nM | 810 nM | 790 nM | 1300 nM |  | 
6 | COc1cc2c(Oc3ccc(/C=N/NC(=O)Nc4ccc(F)cc4Br)cc3F)ccnc2cc1OCCCN1CCCCC1 | 1000 nM | 110 nM | 98 nM | 140 nM | 36400 nM | AUC (Mus musculus [7]): 1210 ng·h/mL; Cmax (Mus musculus [8]): 73 ng/mL; Tmax (Mus musculus [9]): 7.33 h; t1/2 (Mus musculus [10]): 5.07 h; MRT inf [11]: 14.8 h; Vd/F [12]: 346 L/kg
7 | COc1cc2c(Oc3ccc(NC(=O)N/N=C/c4ccc(Cl)cc4Cl)cc3F)ccnc2cc1OCCCN1CCCCC1 | 750 nM | 370 nM |  | 460 nM |  | 
8 | COc1cc2c(Oc3ccc(NC(=O)N/N=C/c4ccc([N+](=O)[O-])cc4)cc3F)ccnc2cc1OCCCN1CCC(C)CC1 | 870 nM | 230 nM | 380 nM | 420 nM |  | 
9 | C=CCc1cccc(/C=N/NC(=O)CN2CCN(Cc3ccccc3)CC2)c1O [PAC-1] |  |  |  | 820 nM | 124000 nM | 
10 | COc1cc2c(Oc3ccc(/C=N/NC(=O)Nc4ccc(Br)cc4)cc3F)ccnc2cc1OCCCN1CCCCC1 | 800 nM | 270 nM |  | 60 nM |  | 
11 | COc1cc2c(Oc3ccc(NC(=O)N/N=C/c4cc5ccccc5[nH]4)cc3F)ccnc2cc1OCCCN1CCCCC1 | 980 nM | 820 nM | 780 nM | 830 nM |  | 
12 | COc1cc2c(Oc3ccc(NC(=O)N/N=C/c4cccs4)cc3F)ccnc2cc1OCCCN1CCCCC1 | 1260 nM | 770 nM | 790 nM | 740 nM | 68700 nM | 
13 | COc1cc2c(Oc3ccc(NC(=O)N/N=C/c4ccc(Cl)cc4Cl)cc3F)ccnc2cc1OCCCN1CCC(C)CC1 | 910 nM | 470 nM |  | 350 nM |  | 
14 | COc1ccc(/C=N/NC(=O)Nc2ccc(Oc3ccnc4cc(OCCCN5CCCCC5)c(OC)cc34)c(F)c2)c(OC)c1 |  | 1600 nM | 1400 nM | 1990 nM |  | 
15 | COc1ccc(/C=N/NC(=O)Nc2ccc(Oc3ccnc4cc(OCCCN5CCCC5)c(OC)cc34)c(F)c2)cc1 | 1300 nM | 690 nM | 680 nM | 750 nM | 26500 nM | 
16 | COc1cc2c(Oc3ccc(NC(=O)N/N=C/c4ccc([N+](=O)[O-])cc4)cc3F)ccnc2cc1OCCCN1CCOCC1 | 1700 nM | 710 nM |  | 750 nM |  | 

Row | SMILES | IC50 (MDA-MB-231) | IC50 (HT-29 [5]) | IC50 (A549) | IC50 [6] | IC50 (PBL) | further results
17 | COc1ccc(/C=N/NC(=O)Nc2ccc(Oc3ccnc4cc(OCCCN5CCOCC5)c(OC)cc34)c(F)c2)cc1 | 1900 nM | 900 nM |  | 770 nM | 17200 nM | 
18 | COc1cc2c(Oc3ccc(NC(=S)N/N=C/c4ccc(F)cc4Cl)cc3F)ccnc2cc1OCCCN1CCCCC1 | 1400 nM | 420 nM | 230 nM | 820 nM | 34100 nM | 
19 | COc1cc2c(Oc3ccc(NC(=O)N/N=C/c4ccncc4)cc3F)ccnc2cc1OCCCN1CCCCC1 | 1400 nM | 940 nM | 840 nM | 980 nM |  | 
20 | COc1cc2c(Oc3ccc(/C=N/NC(=O)Nc4ccccc4)cc3F)ccnc2cc1OCCCN1CCCCC1 | 1200 nM | 190 nM | 280 nM | 180 nM | 25500 nM | 
21 | COc1cc2c(Oc3ccc(NC(=O)N/N=C/c4ccc([N+](=O)[O-])cc4)cc3F)ccnc2cc1OCCCN1CCCC1 | 970 nM | 310 nM | 460 nM | 470 nM |  | 
22 | C=CCc1cccc(/C=N/NC(=O)Nc2ccc(Oc3ccnc4cc(OCCCN5CCCCC5)c(OC)cc34)c(F)c2)c1OC | 790 nM | 460 nM | 250 nM | 670 nM |  | 
23 | COc1cc2c(Oc3ccc(NC(=S)N/N=C/c4ccccc4)cc3F)ccnc2cc1OCCCN1CCCCC1 | 1200 nM | 210 nM | 330 nM | 710 nM | 78400 nM | AUC (Mus musculus [7]): 7340 ng·h/mL; Cmax (Mus musculus [8]): 87 ng/mL; Tmax (Mus musculus [9]): 12 h; t1/2 (Mus musculus [10]): 13.48 h; MRT inf [11]: 24.3 h; Vd/F [12]: 107 L/kg
24 | COc1ccc(/C=N/NC(=O)Nc2ccc(Oc3ccnc4cc(OCCCN5CCCCC5)c(OC)cc34)c(F)c2)cc1 | 840 nM | 590 nM | 540 nM | 660 nM | 126000 nM | 
25 | COc1cc2c(Oc3ccc(NC(=O)N/N=C/c4ccc(N(C)C)cc4)cc3F)ccnc2cc1OCCCN1CCCCC1 | 1400 nM | 1000 nM |  | 870 nM |  | 
26 | COc1cc2c(Oc3ccc(NC(=S)N/N=C/c4ccc(F)c(F)c4)cc3F)ccnc2cc1OCCCN1CCCCC1 | 1400 nM | 610 nM |  | 740 nM |  | 
27 | COc1cc2c(Oc3ccc(/C=N/NC(=O)Nc4ccc(F)c(F)c4)cc3F)ccnc2cc1OCCCN1CCCCC1 | 960 nM | 490 nM |  | 320 nM |  | 
28 | COc1cc2c(Oc3ccc(NC(=O)N/N=C/c4ccc(OC(F)(F)F)cc4)cc3F)ccnc2cc1OCCCN1CCCCC1 | 820 nM | 510 nM | 590 nM | 630 nM |  | 
29 | COc1cc2c(Oc3ccc(NC(=O)N/N=C/c4ccc(F)cc4Cl)cc3F)ccnc2cc1OCCCN1CCC(C)CC1 | 1500 nM | 440 nM | 190 nM | 530 nM | 79500 nM | 
30 | COc1cc2c(Oc3ccc(NC(=S)N/N=C/c4ccc(Cl)cc4)cc3F)ccnc2cc1OCCCN1CCCCC1 | 1300 nM | 190 nM |  | 500 nM |  | 
31 | COc1ccc(/C=N/NC(=O)Nc2ccc(Oc3ccnc4cc(OCCCN5CCC(C)CC5)c(OC)cc34)c(F)c2)cc1 | 1000 nM | 610 nM | 430 nM | 470 nM | 23000 nM | 

From ChEMBL document CHEMBL3763046 (Bioorg Med Chem, 2016)
